# Measurements taken from US5395947A, “Platinum(II) complex and processes for preparing the same” (Sunkyong Industries, Ltd., priority 1991, dated 1995).
# Tests used:
# [1] = test system: murine leukemia L1210 cells; test: Growth inhibition test on cultured murine leukemia L1210 cells; assay type: cell-based; settings: 48 hours, 37° C., Trypan blue viability
# Procedure, shortened: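 L1210 cells (1×10^5) exposed to graded compound concentrations in RPMI 1640 with 10% fetal calf serum, 37° C, 5% CO2, 48 h. Viability by 0.17% Trypan blue staining, relative to untreated control cells.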
# murine leukemia L1210 = test: Antitumor activity test on murine leukemia L1210 in vivo; design: species or system male BDF1 mice; settings: days 1, 5, 9
# Procedure, shortened: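 Intraperitoneal L1210 model: 1×10^6 cells inoculated i.p. into 6-week-old male BDF1 mice (21±3 g) on day 0, seven per group. Compounds in 0.5% CMC given i.p. on days 1, 5 and 9; vehicle-only controls. T/C % from mean survival time of treated over control.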
# Test for nephrotoxicity = assay type: in vivo, male ICR mice
# Method: 4. Test for nephrotoxicity
# The compounds of the present invention were dissolved or suspended in 0.5% CMC solution(in water) and were administered intraperitoneally one time to 8-week-old male ICR mice weighing 30±3 g. Each treatment and control groups consisted of six mice.
# The administration amount of the test compound was 1.5 times the optimum dose obtained in Table 2, or more. On days 1, 4 and 8 after administration, their blood was collected under ether anesthesia for measurement of blood urea nitrogen concentration (BUN value) and creatinine concentration.
# A pair of kidneys were taken and, after immediate weighing, were stored in a 10% neutral buffered formalin solution. The body weight ratio shown in Table 5 is a ratio of the body weight measured on days 1, 4 and 8 from the administration of the compound to the body weight measured on the administration day.
# ICR mice = test: Acute toxicity test; assay type: in vivo; design: Lethality: unit not given here; settings: for Lethality: 10080 min
# Procedure, shortened: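 Male and female 7-week-old ICR mice, 6 per group, dosed intraperitoneally. Signs and survival followed for 7 days, with autopsy of animals that died.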
# [2] = Test for water solubility; assay type: physicochemical; settings: 20° C.
# Text: 3. Test for water solubility
# A standard plot of UV absorbance(220 nm) vs. concentration was made; and employed to determine water-solubility.
# The mixture was then passed through a 0.45 micron disposable membrane filter before dilution and UV measurement.
# [3] = 150 mg/kg i.p. once, mean ± standard error
# [4] = 150 mg/kg i.p. once, vs. administration day
smiles,measurement,setting,value
"CCC1(CC)OC2C[NH2+][Pt-2]3([NH2+]CC2O1)[O]C(=O)CC(=O)[O]3 [Example 37, cis-malonato[(4R,5R)-4,5-bis(aminomethyl)-2,2-diethyl-1,3-dioxolane]platinum(II)]",IC50 (concentration required for 50% inhibition of growth),[1],0.42 µg/mL
same,T/C (%),murine leukemia L1210; 12.5 mg/kg i.p.,130%
same,T/C (%),murine leukemia L1210; 25 mg/kg i.p.,180%
same,T/C (%),murine leukemia L1210; 50 mg/kg i.p.,231%
same,"BUN, 1st day",Test for nephrotoxicity; 75.0 mg/kg i.p. once,27.5 mg/100 ml
same,"BUN, 4th day",Test for nephrotoxicity; 75.0 mg/kg i.p. once,26.4 mg/100 ml
same,"BUN, 8th day",Test for nephrotoxicity; 75.0 mg/kg i.p. once,28.4 mg/100 ml
"CC(C)C1OC(CN)C(CN)O1.CC1[O][Pt][O]C1=O [Example 19, (L-lactato-O,O')[(4R,5R)-4,5-bis(aminomethyl)-2-isopropyl-1,3-dioxolane]platinum(II)]",IC50 (concentration required for 50% inhibition of growth),[1],0.29 µg/mL
same,T/C (%),murine leukemia L1210; 12.5 mg/kg i.p.,208%
same,T/C (%),murine leukemia L1210; 25 mg/kg i.p.,232%
same,T/C (%),murine leukemia L1210; 50 mg/kg i.p.,toxic
same,"BUN, 1st day",Test for nephrotoxicity; 18.8 mg/kg i.p. once,38.6 mg/100 ml
same,"BUN, 4th day",Test for nephrotoxicity; 18.8 mg/kg i.p. once,27.9 mg/100 ml
same,"BUN, 8th day",Test for nephrotoxicity; 18.8 mg/kg i.p. once,50.7 mg/100 ml
same,Number of dead mice for 7 days,"ICR mice; female, 41.3 mg/kg i.p.",2/6
same,"Number of dead mice, 1st day","ICR mice; female, 41.3 mg/kg i.p.",0/6
same,"Number of dead mice, 5th day","ICR mice; female, 41.3 mg/kg i.p.",1/6
same,"Number of dead mice, 6th day","ICR mice; female, 41.3 mg/kg i.p.",1/5
same,Lethality,"ICR mice; female, 41.3 mg/kg i.p.",33.3
same,Number of dead mice for 7 days,"ICR mice; female, 54.9 mg/kg i.p.",4/6
same,"Number of dead mice, 1st day","ICR mice; female, 54.9 mg/kg i.p.",0/6
same,"Number of dead mice, 3rd day","ICR mice; female, 54.9 mg/kg i.p.",1/6
same,"Number of dead mice, 4th day","ICR mice; female, 54.9 mg/kg i.p.",2/5
same,"Number of dead mice, 5th day","ICR mice; female, 54.9 mg/kg i.p.",1/3
same,Lethality,"ICR mice; female, 54.9 mg/kg i.p.",66.7
same,Number of dead mice for 7 days,"ICR mice; female, 71.4 mg/kg i.p.",5/6
same,"Number of dead mice, 1st day","ICR mice; female, 71.4 mg/kg i.p.",0/6
same,"Number of dead mice, 4th day","ICR mice; female, 71.4 mg/kg i.p.",1/6
same,"Number of dead mice, 5th day","ICR mice; female, 71.4 mg/kg i.p.",3/5
same,"Number of dead mice, 6th day","ICR mice; female, 71.4 mg/kg i.p.",1/2
same,Lethality,"ICR mice; female, 71.4 mg/kg i.p.",83.3
same,Number of dead mice for 7 days,"ICR mice; female, 91.8 mg/kg i.p.",6/6
same,"Number of dead mice, 1st day","ICR mice; female, 91.8 mg/kg i.p.",0/6
same,"Number of dead mice, 2nd day","ICR mice; female, 91.8 mg/kg i.p.",1/6
same,"Number of dead mice, 3rd day","ICR mice; female, 91.8 mg/kg i.p.",2/5
same,"Number of dead mice, 4th day","ICR mice; female, 91.8 mg/kg i.p.",2/3
same,"Number of dead mice, 5th day","ICR mice; female, 91.8 mg/kg i.p.",1/1
same,Lethality,"ICR mice; female, 91.8 mg/kg i.p.",100.0
same,Number of dead mice for 7 days,"ICR mice; male, 41.3 mg/kg i.p.",3/6
same,"Number of dead mice, 1st day","ICR mice; male, 41.3 mg/kg i.p.",0/6
same,"Number of dead mice, 5th day","ICR mice; male, 41.3 mg/kg i.p.",1/6
same,"Number of dead mice, 6th day","ICR mice; male, 41.3 mg/kg i.p.",2/5
same,Lethality,"ICR mice; male, 41.3 mg/kg i.p.",50.0
same,Number of dead mice for 7 days,"ICR mice; male, 54.9 mg/kg i.p.",4/6
same,"Number of dead mice, 1st day","ICR mice; male, 54.9 mg/kg i.p.",0/6
same,"Number of dead mice, 4th day","ICR mice; male, 54.9 mg/kg i.p.",1/6
same,"Number of dead mice, 5th day","ICR mice; male, 54.9 mg/kg i.p.",2/5
same,"Number of dead mice, 6th day","ICR mice; male, 54.9 mg/kg i.p.",1/3
same,Lethality,"ICR mice; male, 54.9 mg/kg i.p.",66.7
same,Number of dead mice for 7 days,"ICR mice; male, 71.4 mg/kg i.p.",5/6
same,"Number of dead mice, 1st day","ICR mice; male, 71.4 mg/kg i.p.",0/6
same,"Number of dead mice, 4th day","ICR mice; male, 71.4 mg/kg i.p.",1/6
same,"Number of dead mice, 5th day","ICR mice; male, 71.4 mg/kg i.p.",2/5
same,"Number of dead mice, 6th day","ICR mice; male, 71.4 mg/kg i.p.",2/3
same,Lethality,"ICR mice; male, 71.4 mg/kg i.p.",83.7
same,Number of dead mice for 7 days,"ICR mice; male, 91.8 mg/kg i.p.",6/6
same,"Number of dead mice, 1st day","ICR mice; male, 91.8 mg/kg i.p.",0/6
same,"Number of dead mice, 2nd day","ICR mice; male, 91.8 mg/kg i.p.",1/6
same,"Number of dead mice, 3rd day","ICR mice; male, 91.8 mg/kg i.p.",4/5
same,"Number of dead mice, 5th day","ICR mice; male, 91.8 mg/kg i.p.",1/1
same,Lethality,"ICR mice; male, 91.8 mg/kg i.p.",100.0
"CC1OC2C[NH2+][Pt-2]3([NH2+]CC2O1)[O]C(=O)C1(CCC1)C(=O)[O]3 [Example 23, cis-cyclobutane-1,1-dicarboxylato[(4S,5S)-4,5-bis(aminomethyl)-2-methyl-1,3-dioxolane]platinum(II)]",IC50 (concentration required for 50% inhibition of growth),[1],1.75 µg/mL
same,T/C (%),murine leukemia L1210; 6.2 mg/kg i.p.,108%
same,T/C (%),murine leukemia L1210; 12.5 mg/kg i.p.,115%
same,T/C (%),murine leukemia L1210; 25 mg/kg i.p.,150%
same,T/C (%),murine leukemia L1210; 50 mg/kg i.p.,201%
same,T/C (%),murine leukemia L1210; 100 mg/kg i.p.,254%
same,Solubility in water,[2],22.1 mg/mL
same,"BUN, 1st day",Test for nephrotoxicity; 150 mg/kg i.p. once,24.8 mg/100 ml
same,"BUN, 4th day",Test for nephrotoxicity; 150 mg/kg i.p. once,32.1 mg/100 ml
same,"BUN, 8th day",Test for nephrotoxicity; 150 mg/kg i.p. once,42.0 mg/100 ml
same,"Creatinine, 1st day",Test for nephrotoxicity; 150 mg/kg i.p. once,0.26 mg/100 ml
same,"Creatinine, 4th day",Test for nephrotoxicity; 150 mg/kg i.p. once,0.30 mg/100 ml
same,"Creatinine, 8th day",Test for nephrotoxicity; 150 mg/kg i.p. once,0.28 mg/100 ml
same,"Kidney wt (paired weight), 1st day",Test for nephrotoxicity; [3],492 ± 22.7 mg
same,"Kidney wt (paired weight), 4th day",Test for nephrotoxicity; [3],535 ± 16.3 mg
same,"Kidney wt (paired weight), 8th day",Test for nephrotoxicity; [3],527 ± 13.8 mg
same,"body weight ratio (BWR), 1st day",Test for nephrotoxicity; [4],0.98
same,"body weight ratio (BWR), 4th day",Test for nephrotoxicity; [4],0.96
same,"body weight ratio (BWR), 8th day",Test for nephrotoxicity; [4],0.99
